# Results from patent publication US5250734A, “Phenanthrene methanol compounds useful as antimalarial agents” (Belmac Corporation, priority 1992, dated 1993).
# Entries after “also recorded” stand apart in the source; their conditions may differ. Counter-ions that a name gives are not always drawn. Like-named read-outs stand apart in the source and are kept apart here.
# What was measured:
# [1] = system: Plasmodium berghei KBG 173; assay: Survival of malaria infected mice, compound of Synthesis Example 2, halofantrine or mefloquine; assay type: in vivo, Plasmodium berghei KBG 173 in ICR/HA Swiss mice
# [2] = system: Plasmodium berghei KBG 173; assay: Survival of mice infected with drug-sensitive malaria, compound of Synthesis Example 3, halofantrine or mefloquine; assay type: in vivo, Plasmodium berghei KBG 173 in ICR/HA Swiss mice; conditions: SC
# Description: The protocol which is set forth below is a well-established model for the treatment of malaria in human beings, and has been adopted by the U.S. Army Medial Research Command.
# The system used for the compounds formed in Synthesis Examples 2 and 3 was based on comparisons of responses to test compounds by Plasmodium berghei KBG 173 malaria in mice as expressed in mean survival times and the mean survival times of untreated controls. Thus, compounds noted as active produced increases in the survival times of the treated animals that are significant when compared with the survival times of untreated controls. Since an established disease is less sensitive to treatment than a disease in the early stages of development, treatment was withheld until the parasitemia was relatively high in order to ensure a more reliable assay of activity and the selection of appropriate compounds for pre-clinical studies.
# (§1) Utilizing young ICR/HA Swiss mice and a standard inoculum of Plasmodium berghei KBG 173, it was possible to produce a uniform disease fatal to […] of untreated animals within 6 to 8 days with a mean survival time of 6.2 days. Test animals weighed from 18 to 22 grams but weight variations in any given experimental or control group were confined to 2-3 grams. All animals in any given test were approximately of the same age. Animals on test were housed in metal-topped plastic cages, given a standard laboratory diet and water ad libitum.
# (§2) Test animals received an intraperitoneal injection of 0.5 ml of 1:100 dilution of heparinized heart's blood with a minimum of 90% parasitized cells (4×10^7 cells), drawn from donor mice infected one week earlier with Plasmodium berghei. The donor strain was maintained by weekly passages in separate groups of mice inoculated with a 0.5 ml of 1:500 dilution of heparinized heart's blood.
# (§3) Test compounds were administered after dissolution or suspension in peanut oil. A single dose was given subcutaneously 72 hours after the mice were infected with Plasmodium berghei. At this time a 10-15 percent parasitemia had developed; the disease was well established but had not produced sufficient debility to alter the response of the host to toxic effects of the drug on test. Since treatment was withheld for three days to permit the infection to become well-established and death occurred in untreated controls within 6-8 days, it was felt that this system presented a candidate compound with the maximum challenge.
# [3] = system: Plasmodium berghei KBG 173; assay: as above; assay type: in vivo, Plasmodium berghei KBG 173 in ICR/HA Swiss mice
# [4] = system: Plasmodium falciparum (chloroquine-sensitive and resistant strains); conditions: cited from earlier work
# [5] = system: Plasmodium berghei KBG 173; assay: Mean parasitemias for mice treated with the compound of Synthesis Example 2; assay type: in vivo, Plasmodium berghei KBG 173 in ICR/HA Swiss mice
# [6] = Toxicity in malaria infected mice; assay type: in vivo, ICR/HA Swiss mice; conditions: 256 mg/kg/day
# Description: as §1, §2
# Test compounds were administered after dissolution or suspension in peanut oil. A single dose was given subcutaneously 72 hours after the mice were infected with Plasmodium berghei. At this time a 10-15 percent parasitemia had developed; the disease was well established but had not produced sufficient debility to alter the response of the host to toxic effects of the drug on test. […]
# [7] = system: P. falciparum (multi-drug resistant Vietnam Smith strain and Cambodian Buchanan strain); conditions: short period, minimum of two doses; Vietnam Smith and Cambodian Buchanan strains; cited from earlier work
# [8] = system: Chesson strain of P. vivax; conditions: short period, minimum of two doses; cited from earlier work
# [9] = in vivo; cited from earlier work
# [10] = system: Plasmodium falciparum FCM 29/Cameroon; assay: In vitro drug susceptibility test ([3H]hypoxanthine uptake), strain FCM 29/Cameroon; assay type: cell-based
# Description: (§4) Three strains of P. falciparum were used. FCM 29/Cameroon was highly chloroquine- and quinine-resistant (IC50 […] and 800 nM, respectively). The strain was cloned by a dilution method. FCM 6/Thailand was moderately chloroquine-resistant (IC50 600 nM), while L-3/Ivory Coast was chloroquine-susceptible (IC50 20 nM). The continuous in vitro culture of the parasites was maintained under standard conditions, as described by W. Trager and J. B. Jensen, "Human malaria parasites in continuous culture", Science 193, 673-675 (1976), with a gas phase of 5% O2, 5% CO2, and 90% N2.
# (§5) The test compound was dissolved in methanol to a concentration of 1 mg/ml. Triplicates of seven serial dilutions were prepared to obtain the final concentrations ranging from 0.4 to 25 ng/ml and distributed in 24-well plates. […]
# (§6) The testing procedures used for the in vitro assay in this study were those described by J. Le Bras and P. Deloron, "In vitro study of drug sensitivity of Plasmodium falciparum: an evaluation of a new semi-microtest", American Journal of Tropical Medicine and Hygiene 32: 447-451 (1983). […] The filter discs were dried and placed in a mini-vial with 1.5 ml of liquid scintillation cocktail (OptiScint `Hisafe`, LKB, Wallac, England) and the amount of radioactivity incorporated by the parasites was measured by a liquid scintillation counter (Wallac 1410, Pharmacia, Sweden). […]
# [11] = system: Plasmodium falciparum FCM 6/Thailand; assay: In vitro drug susceptibility test ([3H]hypoxanthine uptake), strain FCM 6/Thailand; assay type: cell-based; conditions: mean ± SEM from four separate assays
# Description: as §4, §5, §6
# [12] = system: Plasmodium falciparum L-3/Ivory Coast; assay: In vitro drug susceptibility test ([3H]hypoxanthine uptake), strain L-3/Ivory Coast; assay type: cell-based; conditions: two values given
# Description: as §4, §5, §6
# Plasmodium falciparum = assay: In vitro antimalarial activity against established lines of P. falciparum (overall statement); assay type: cell-based
# Description: The compound of Synthesis Example 1 was tested against the established lines of Plasmodium falciparum in vitro. Halofantrine hydrochloride was used as a reference drug.
# as §4
# The test compound was dissolved in methanol to a concentration of 1 mg/ml. […]
# as §6
# Plasmodium berghei = assay: Positive control group of infected mice treated with pyrimethamine; assay type: in vivo, Plasmodium berghei in ICR/HA Swiss mice; conditions: dose levels not stated
# Description: as §3
molecule,measurement,setting,value
"OC(c1cc(C(F)(F)F)nc2c(C(F)(F)F)cccc12)C1CCCCN1 (stereo not drawn) [Mefloquine, α-2-piperidinyl-2,8-bis(trifluorormethyl)-4-quinoline methanol]",number of mice alive day 21/total,"[1]; 1 mg/kg/day, PO",0/7
same,number of mice alive day 21/total,"[1]; 4 mg/kg/day, PO",3/7
same,number of mice alive day 21/total,"[1]; 16 mg/kg/day, PO",7/7
same,number of mice alive D + 18 / total,[2]; 1 mg/kg/day,0/7
same,number of mice alive D + 18 / total,[2]; 4 mg/kg/day,4/7
same,number of mice alive D + 18 / total,[2]; 16 mg/kg/day,7/7
same,number of mice alive D + 18 / total,"[3]; 1 mg/kg/day, PO",0/7
same,number of mice alive D + 18 / total,"[3]; 4 mg/kg/day, PO",6/7
same,number of mice dead/day died,"[3]; 4 mg/kg/day, PO",1/16
same,number of mice dead/day died,"[3]; 4 mg/kg/day, SC",3/13
same,number of mice alive D + 18 / total,"[3]; 16 mg/kg/day, PO",7/7
same,antimalarial activity in humans,[4],exhibit antimalarial activity in humans against both chloroquine-sensitive and resistant strains
"Cl.OC(CCNCCCc1ccccc1)c1cc2c(Cl)cc(Cl)cc2c2cc(C(F)(F)F)ccc12 (centres unmarked) [Synthesis Example 3, 1,3-dichloro-6-trifluoromethyl-9-[1-hydroxy-3-(3-phenyl-1-propylamino)propyl] phenanthrene hydrochloride]",number of mice alive D + 18 / total,[2]; 16 mg/kg/day,7/7
same,number of mice alive D + 18 / total,"[3]; 1 mg/kg/day, PO",2/7
same,number of mice alive D + 18 / total,"[3]; 1 mg/kg/day, SC",1/7
same,number of mice alive D + 18 / total,"[3]; 4 mg/kg/day, PO",6/7
same,number of mice dead/day died,"[3]; 4 mg/kg/day, PO",1/8
same,number of mice alive D + 18 / total,"[3]; 4 mg/kg/day, SC",7/7
same,number of mice alive D + 18 / total,"[3]; 16 mg/kg/day, PO",7/7
same,number of mice alive D + 18 / total,"[3]; 64 mg/kg/day, PO",7/7
same,number of mice alive D + 18 / total,"[3]; 64 mg/kg/day, SC",7/7
same,number of mice alive D + 18 / total,"[3]; 256 mg/kg/day, PO",6/7
same,number of mice dead/day died,"[3]; 256 mg/kg/day, PO",1/4
same,number of mice alive D + 18 / total,"[3]; 256 mg/kg/day, SC",7/7
"1,3-dichloro-6-triflurormethyl-[1-hydroxy-3-(3-phenyl-1-propylamino)propyl] phenanthrene quinate [Synthesis Example 2]",number of mice alive day 21/total,"[1]; 1 mg/kg/day, PO",3/7
same,number of mice alive day 21/total,"[1]; 1 mg/kg/day, SC",3/7
same,number of mice alive day 21/total,"[1]; 4 mg/kg/day, PO",7/7
same,number of mice alive day 21/total,"[1]; 4 mg/kg/day, SC",5/7
same,number of mice alive day 21/total,"[1]; 16 mg/kg/day, PO",6/7
same,number of mice dead/day died,"[1]; 16 mg/kg/day, PO",1/21
same,number of mice alive day 21/total,"[1]; 16 mg/kg/day, SC",7/7
same,number of mice alive day 21/total,"[1]; 64 mg/kg/day, PO",7/7
same,number of mice alive day 21/total,"[1]; 64 mg/kg/day, SC",7/7
same,number of mice alive day 21/total,"[1]; 256 mg/kg/day, PO",1/7
same,number of mice alive day 21/total,"[1]; 256 mg/kg/day, SC",5/7
same,mean parasitemia,"[5]; 4 mg/kg/day, oral",31.2
same,mean parasitemia,"[5]; 4 mg/kg/day, subcut.",45.2
same,mean parasitemia,"[5]; 16 mg/kg/day, oral",16.3
same,mean parasitemia,"[5]; 16 mg/kg/day, subcut.",10.7
same,mean parasitemia,"[5]; 64 mg/kg/day, oral",0.14
same,mean parasitemia,"[5]; 64 mg/kg/day, subcut.",0.4
same,mean parasitemia,"[5]; 256 mg/kg/day, oral",1.00
same,mean parasitemia,"[5]; 256 mg/kg/day, subcut.",0.00
same,mean parasitemia,"[5]; 1 (printed ""l"") mg/kg/day, oral",19.3
same,mean parasitemia,"[5]; 1 (printed ""l"") mg/kg/day, subcut.",61.7
same,toxicity,[6],Toxicity clearly evident at this level
"CCCCN(CCCC)CCC(O)c1cc2c(Cl)cc(Cl)cc2c2cc(C(F)(F)F)ccc12 (centres unmarked) [halofantrine, 1-[1,3-dichlorotrifluoromethyl-9-phenanthryl]-3-di-(n-butyl)-aminopropanolhydrochloride]",number of mice alive day 21/total,"[1]; 1 mg/kg/day, PO",4/7
same,number of mice alive day 21/total,"[1]; 1 mg/kg/day, SC",2/7
same,number of mice alive day 21/total,"[1]; 4 mg/kg/day, PO",6/7
same,number of mice dead/day died,"[1]; 4 mg/kg/day, PO",1/19
same,number of mice alive day 21/total,"[1]; 4 mg/kg/day, SC",7/7
same,number of mice alive day 21/total,"[1]; 16 mg/kg/day, PO",6/7
same,number of mice dead/day died,"[1]; 16 mg/kg/day, PO",1/19
same,number of mice alive day 21/total,"[1]; 16 mg/kg/day, SC",6/7
same,number of mice dead/day died,"[1]; 16 mg/kg/day, SC",1/21
same,number of mice alive D + 18 / total,[2]; 1 mg/kg/day,5/7
same,number of mice alive D + 18 / total,[2]; 4 mg/kg/day,7/7
same,number of mice alive D + 18 / total,[2]; 16 mg/kg/day,7/7
same,number of mice alive D + 18 / total,"[3]; 1 mg/kg/day, PO",4/7
same,number of mice dead/day died,"[3]; 1 mg/kg/day, PO",3/18
same,number of mice alive D + 18 / total,"[3]; 4 mg/kg/day, PO",6/7
same,number of mice dead/day died,"[3]; 4 mg/kg/day, PO",1/18
same,number of mice alive D + 18 / total,"[3]; 16 mg/kg/day, PO",6/6
same,antimalarial efficacy,[7],effective
same,antimalarial efficacy,[8],effective
same,systemic bioavailability,[9],problems with systemic bioavailability remained
"C=C[C@H]1C[N@@]2CC[C@H]1C[C@H]2[C@H](O)c1ccnc2ccc(OC)cc12 [quinine, reference compound]",IC50,[10]; read-out: IC50 (strain resistance),0.8 µM
"CCCCNCCC(O)c1cc2c(Cl)cc(Cl)cc2c2cc(C(F)(F)F)ccc12.Cl (centres unmarked) [Synthesis Example 1, 1,3-Dichloro-6-trifluoromethyl-9-[1-hydroxy-3-(butylamino)propyl] phenanthrene hydrochloride]",IC50,[10],3.5 ± 0.6 ng/mL
same,IC50,[11],3 ± 0.2 ng/mL
same,IC50,[12]; Plasmodium falciparum,4.3 ng/mL
same,IC50,[12]; hydrochloride,4.8 ng/mL
same,activity compared with halofantrine,"Plasmodium falciparum; P. falciparum, reference halofantrine",slightly less than that of halofantrine
same,antimalarial activity,"Plasmodium falciparum; chloroquine-susceptible and chloroquine-resistant strains, hydrochloride",high antimalarial activity against both chloroquine-susceptible and chloroquine-resistant strains; also recorded: potent antimalarial action at a low nanomolar range
CCc1nc(N)nc(N)c1-c1ccc(Cl)cc1 [pyrimethamine],survival time,Plasmodium berghei,definite increases in survival time
